SMILES strings stand for the structures. Where “and” joins values, the source holds several entries; their conditions need not be identical. Equal entries are not always repeated. Inconclusive results are not listed.

In this test the test system is CD8F1 mice, subcutaneous mammary adenocarcinoma, T/C%. Description: NCI In Vivo Anticancer Drug Screen. Data for tumor model Mammary Adenocarcinoma CD8F1 (subcutaneous) in CD8F1. The settings on record: higher = larger tumour. Summed up:
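Compound-treated versus vehicle-treated mice with transplantable tumors; survival or tumor size compared as T/C.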

Where [1] appears, read: endpoint: median tumor weight (est.), dose: 100.0 mg/kg/injection, schedule: Q07DX005 (ip), vehicle: saline with Tween-80.
The mark [2] stands for this setting: endpoint: median tumor weight (est.), dose: 25.0 mg/kg/injection, schedule: Q07DX005 (ip), vehicle: saline with Tween-80.
The mark [3] stands for this setting: endpoint: median tumor weight (est.), dose: 50.0 mg/kg/injection, schedule: Q07DX005 (ip), vehicle: saline with Tween-80.
[4] abbreviates: endpoint: median tumor weight (est.), dose: 200.0 mg/kg/injection, schedule: Q07DX005 (ip), vehicle: saline with Tween-80.

As to `COC1N(C2CC(O)C(CO)O2)C(=O)NC(=O)C1(F)Br` (stereo not given), the T/C (endpoint: median tumor weight (est.), dose: 3.12 mg/kg/injection, schedule: Q07DX005 (ip), vehicle: saline) is 74 % of control; the T/C (endpoint: median tumor weight (est.), dose: 6.25 mg/kg/injection, schedule: Q07DX005 (ip), vehicle: saline) is 54 % of control; the T/C (endpoint: median tumor weight (est.), dose: 6.25 mg/kg/injection, schedule: Q07DX005 (ip), vehicle: suspension in saline) was 67 % of control; the T/C (endpoint: median tumor weight (est.), dose: 12.5 mg/kg/injection, schedule: Q07DX005 (ip), vehicle: saline) was 28 % of control; the T/C (endpoint: median tumor weight (est.), dose: 12.5 mg/kg/injection, schedule: Q07DX005 (ip), vehicle: suspension in saline) was 113 % of control; the T/C (endpoint: median tumor weight (est.), dose: 25.0 mg/kg/injection, schedule: Q07DX005 (ip), vehicle: saline) is 46 % of control. For the same compound, the T/C by setting is: (endpoint: median tumor weight (est.), dose: 25.0 mg/kg/injection, schedule: Q07DX005 (ip), vehicle: suspension in saline) 66 % of control; (endpoint: median tumor weight (est.), dose: 50.0 mg/kg/injection, schedule: Q07DX005 (ip), vehicle: saline) 28 % of control; (endpoint: median tumor weight (est.), dose: 50.0 mg/kg/injection, schedule: Q07DX005 (ip), vehicle: suspension in saline) 45 % of control; (endpoint: median tumor weight (est.), dose: 100.0 mg/kg/injection, schedule: Q07DX005 (ip), vehicle: saline) 5 % of control; (endpoint: median tumor weight (est.), dose: 100.0 mg/kg/injection, schedule: Q07DX005 (ip), vehicle: suspension in saline) 45 % of control; (endpoint: median tumor weight (est.), dose: 200.0 mg/kg/injection, schedule: Q07DX005 (ip), vehicle: suspension in saline) 57 % of control.

In the case of `COC(=O)c1cc2cc(C)c(C)c(C)c2c2ccc(C)cc12`, under setting [1], the T/C is 101 % of control.

With `O=CN(SSN(C=O)C1CCCCC1)C1CCCCC1`, the T/C is 101 % of control under setting [2], 123 % of control under setting [3] and 100 % of control under setting [4].

Consider `COC(=O)C[C@](O)(CCCC(C)(C)O)C(=O)O[C@@H]1C(OC)=C[C@]23CCCN2CCc2cc4c(cc2[C@H]13)OCO4`, for which the T/C is 59 % of control (endpoint: median tumor weight (est.), dose: 0.25 mg/kg/injection, schedule: Q07DX005 (ip), vehicle: saline); 57 % of control and 60 % of control (endpoint: median tumor weight (est.), dose: 0.5 mg/kg/injection, schedule: Q07DX005 (ip), vehicle: saline); 61 % of control and 78 % of control (endpoint: median tumor weight (est.), dose: 1.0 mg/kg/injection, schedule: Q07DX005 (ip), vehicle: saline); 14 % of control and 21 % of control (endpoint: median tumor weight (est.), dose: 2.0 mg/kg/injection, schedule: Q07DX005 (ip), vehicle: saline); 7 % of control (endpoint: median tumor weight (est.), dose: 4.0 mg/kg/injection, schedule: Q07DX005 (ip), vehicle: saline).

`BrC1c2cccc3cccc(c23)C1Br` (stereo not given): the T/C (endpoint: median tumor weight (est.), dose: 12.5 mg/kg/injection, schedule: Q07DX005 (ip), vehicle: saline with Tween-80) is 113 % of control; the T/C under setting [2] is 88 % of control; the T/C under setting [3] is 111 % of control; the T/C under setting [1] is 117 % of control; the T/C under setting [4] was 85 % of control.

For the compound `F[B-](F)(F)F`, the T/C by setting is: (endpoint: median tumor weight (est.), dose: 12.5 mg/kg/injection, schedule: Q07DX005 (ip), vehicle: gum acacia) 109 % of control; (endpoint: median tumor weight (est.), dose: 25.0 mg/kg/injection, schedule: Q07DX005 (ip), vehicle: gum acacia) 88 % of control; (endpoint: median tumor weight (est.), dose: 50.0 mg/kg/injection, schedule: Q07DX005 (ip), vehicle: gum acacia) 83 % of control; (endpoint: median tumor weight (est.), dose: 100.0 mg/kg/injection, schedule: Q07DX005 (ip), vehicle: gum acacia) 96 % of control; (endpoint: median tumor weight (est.), dose: 200.0 mg/kg/injection, schedule: Q07DX005 (ip), vehicle: gum acacia) 74 % of control; (endpoint: median tumor weight (est.), dose: 400.0 mg/kg/injection, schedule: Q07DX005 (ip), vehicle: gum acacia) 90 % of control.

For the compound `Cc1c[nH]c(=O)[nH]c1=O`, the T/C is 214 % of control and 74 % of control (endpoint: median tumor weight (est.), dose: 64.0 mg/kg/injection, schedule: Q07DX005 (ip), vehicle: Klucel (hydroxypropylcellulose) (HPC)); 112 % of control and 118 % of control (endpoint: median tumor weight (est.), dose: 128.0 mg/kg/injection, schedule: Q07DX005 (ip), vehicle: Klucel (hydroxypropylcellulose) (HPC)).

Consider `C[n+]1ccc2cc(N)c3c4ccccc4sc3c2c1`, for which the T/C is 83 % of control (endpoint: median tumor weight (est.), dose: 1.56 mg/kg/injection, schedule: Q07DX004 (ip), vehicle: saline with Tween-80); 121 % of control (endpoint: median tumor weight (est.), dose: 3.12 mg/kg/injection, schedule: Q07DX004 (ip), vehicle: saline with Tween-80); 65 % of control (endpoint: median tumor weight (est.), dose: 6.25 mg/kg/injection, schedule: Q07DX004 (ip), vehicle: saline with Tween-80); 105 % of control (endpoint: median tumor weight (est.), dose: 12.5 mg/kg/injection, schedule: Q07DX004 (ip), vehicle: saline with Tween-80); 110 % of control (endpoint: median tumor weight (est.), dose: 25.0 mg/kg/injection, schedule: Q07DX004 (ip), vehicle: saline with Tween-80).

As to `C[C@]12CC[C@H]3[C@@H](CCC4=C[C@@H](OC5OCC(OC6OC(CO)C(O)C(O)C6O)C(O)C5O)CC[C@@]43C=O)[C@@]1(O)CCC2C1=CC(=O)OC1` (stereo not given in full), the T/C (endpoint: median tumor weight (est.), dose: 0.62 mg/kg/injection, schedule: Q07DX005 (ip), vehicle: Klucel (hydroxypropylcellulose) (HPC)) was 63 % of control; the T/C (endpoint: median tumor weight (est.), dose: 1.25 mg/kg/injection, schedule: Q07DX005 (ip), vehicle: Klucel (hydroxypropylcellulose) (HPC)) is 85 % of control and 89 % of control; the T/C (endpoint: median tumor weight (est.), dose: 10.0 mg/kg/injection, schedule: Q07DX005 (ip), vehicle: Klucel (hydroxypropylcellulose) (HPC)) is 93 % of control and 108 % of control; the T/C (endpoint: median tumor weight (est.), dose: 20.0 mg/kg/injection, schedule: Q07DX005 (ip), vehicle: Klucel (hydroxypropylcellulose) (HPC)) is 106 % of control; the T/C (endpoint: median tumor weight (est.), dose: 40.0 mg/kg/injection, schedule: Q07DX005 (ip), vehicle: Klucel (hydroxypropylcellulose) (HPC)) is 93 % of control.

Turning to `CN(C)[C@@H]1C(=O)C(C(N)=O)=C(O)[C@@]2(O)C(=O)C3=C(O)c4c(O)ccc(Cl)c4[C@@](C)(O)[C@H]3C[C@@H]12`, the T/C is, setting by setting: (endpoint: median tumor weight change, dose: 31.25 mg/kg/injection, schedule: Q01DX001 (ip), vehicle: suspension in saline) 86 % of control; (endpoint: median tumor weight change, dose: 62.5 mg/kg/injection, schedule: Q01DX001 (ip), vehicle: suspension in saline) 104 % of control; (endpoint: median tumor weight change, dose: 125.0 mg/kg/injection, schedule: Q01DX001 (ip), vehicle: suspension in saline) 84 % of control; (endpoint: median tumor weight change, dose: 250.0 mg/kg/injection, schedule: Q01DX001 (ip), vehicle: suspension in saline) 83 % of control.

`CN(C1=NS(=O)(=O)N=C(N(C)c2ccccc2)O1)c1ccccc1`: the T/C reads like this: (endpoint: median tumor weight (est.), dose: 12.5 mg/kg/injection, schedule: Q07DX005 (ip), vehicle: Klucel (hydroxypropylcellulose) (HPC)) 86 % of control; (endpoint: median tumor weight (est.), dose: 25.0 mg/kg/injection, schedule: Q07DX005 (ip), vehicle: Klucel (hydroxypropylcellulose) (HPC)) 88 % of control; (endpoint: median tumor weight (est.), dose: 50.0 mg/kg/injection, schedule: Q07DX005 (ip), vehicle: Klucel (hydroxypropylcellulose) (HPC)) 90 % of control; (endpoint: median tumor weight (est.), dose: 100.0 mg/kg/injection, schedule: Q07DX005 (ip), vehicle: Klucel (hydroxypropylcellulose) (HPC)) 123 % of control and 115 % of control; (endpoint: median tumor weight (est.), dose: 200.0 mg/kg/injection, schedule: Q07DX005 (ip), vehicle: Klucel (hydroxypropylcellulose) (HPC)) 86 % of control and 111 % of control; (endpoint: median tumor weight (est.), dose: 800.0 mg/kg/injection, schedule: Q07DX005 (ip), vehicle: Klucel (hydroxypropylcellulose) (HPC)) 85 % of control. Besides, the T/C is 76 % of control (endpoint: median tumor weight change, dose: 50.0 mg/kg/injection, schedule: Q01DX001 (ip), vehicle: Klucel (hydroxypropylcellulose) (HPC)); 71 % of control and 75 % of control and 91 % of control (endpoint: median tumor weight change, dose: 100.0 mg/kg/injection, schedule: Q01DX001 (ip), vehicle: Klucel (hydroxypropylcellulose) (HPC)); 47 % of control and 64 % of control and 69 % of control (endpoint: median tumor weight change, dose: 800.0 mg/kg/injection, schedule: Q01DX001 (ip), vehicle: Klucel (hydroxypropylcellulose) (HPC)); 70 % of control (endpoint: median tumor weight change, dose: 1600.0 mg/kg/injection, schedule: Q01DX001 (ip), vehicle: Klucel (hydroxypropylcellulose) (HPC)).

`O=C(N[C@H](CO)[C@H](O)c1ccc([N+](=O)[O-])cc1)C(Cl)Cl`: the T/C by setting is: (endpoint: median tumor weight change, dose: 62.5 mg/kg/injection, schedule: Q01DX001 (ip), vehicle: saline with Tween-80) 102 % of control; (endpoint: median tumor weight change, dose: 125.0 mg/kg/injection, schedule: Q01DX001 (ip), vehicle: saline with Tween-80) 91 % of control; (endpoint: median tumor weight change, dose: 250.0 mg/kg/injection, schedule: Q01DX001 (ip), vehicle: saline with Tween-80) 92 % of control; (endpoint: median tumor weight change, dose: 500.0 mg/kg/injection, schedule: Q01DX001 (ip), vehicle: saline with Tween-80) 73 % of control; (endpoint: median tumor weight change, dose: 1000.0 mg/kg/injection, schedule: Q01DX001 (ip), vehicle: saline with Tween-80) 98 % of control.

Regarding `O=C(O)C(O)C(O)C1[O][Sb][O]C1C(=O)O` (stereo not given), the T/C reads like this: (endpoint: median tumor weight change, dose: 31.0 mg/kg/injection, schedule: Q01DX001 (ip), vehicle: saline) 115 % of control; (endpoint: median tumor weight change, dose: 62.0 mg/kg/injection, schedule: Q01DX001 (ip), vehicle: saline) 93 % of control.

(Values after PubChem BioAssay AID220 (DTP/NCI, 2004).)
